One data set addresses T1, human TPOR (Homo sapiens, UniProt P40238).
T1 construct: host or cells: BaF3 (murine pro-B cells), stably transfected, G418-selected
T1 sequence (P40238 26-635): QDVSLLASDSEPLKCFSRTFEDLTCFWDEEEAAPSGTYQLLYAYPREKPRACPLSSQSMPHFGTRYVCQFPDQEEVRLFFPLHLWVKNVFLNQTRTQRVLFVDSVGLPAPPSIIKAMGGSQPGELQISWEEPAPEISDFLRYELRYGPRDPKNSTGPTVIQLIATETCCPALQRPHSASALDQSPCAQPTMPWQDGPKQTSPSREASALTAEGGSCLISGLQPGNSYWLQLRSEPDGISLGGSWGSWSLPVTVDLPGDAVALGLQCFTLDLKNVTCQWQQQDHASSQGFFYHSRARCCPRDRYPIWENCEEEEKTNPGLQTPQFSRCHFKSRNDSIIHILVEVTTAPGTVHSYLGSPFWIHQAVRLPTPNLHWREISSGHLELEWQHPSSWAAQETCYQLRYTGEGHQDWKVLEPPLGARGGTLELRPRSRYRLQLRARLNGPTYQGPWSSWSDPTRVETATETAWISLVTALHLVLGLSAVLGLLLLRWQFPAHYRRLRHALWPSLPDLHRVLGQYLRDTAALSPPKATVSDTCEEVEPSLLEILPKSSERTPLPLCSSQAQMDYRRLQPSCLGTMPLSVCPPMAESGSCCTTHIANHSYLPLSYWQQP
Put plainly: Proliferation effect on BAF3-TPOR cell (CCK-8). It counts as cell-based. Conditions: rate relative to rhTPO positive control. Summed up:
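BaF3 cells stably expressing dual-site-mutated human TPOR were washed free of IL-3 and plated at 100,000 cells/mL with test solutions of 0.001–30 μM, then incubated 24 h at 37 °C. After a further 24 h with CCK-8, OD450 was read. Proliferation = (S−B)/(P−B) against a rhTPO control, fitted for EC50.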

The nature of data set [1]: Solubility assay in water, 0.1% hydrochloric acid and methanol. The format is physicochemical. Conditions: read-out: solubility. A digest of the protocol: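 Solubility was classed by the solvent volume needed to dissolve 1 g (mL) of solute, from "very soluble" (<1 mL) to "practically insoluble" (not fully dissolved in 10000 mL).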
The mark [2] stands for this setting: 0.1% hydrochloric acid, simulated gastric fluid, 0.1% hydrochloric acid.

Like-named read-outs stand apart in the source and are kept apart here.

For `CC1=NN(c2ccc3c(c2)CCCC3)C(=O)/C1=N\Nc1cccc(-c2ccc(C(=O)O)o2)c1O` [Example 8, (Z)-5-(2-hydroxy-3-{N′-[3-methyl-5-oxo-1-(5,6,7,8-tetrahydro-naphthalen-2-yl)-1,5-dihydro-pyrazol-4-ylidene]-hydrazino}-phenyl)-furan-2-carboxylic acid bis-(choline)], the EC50 at human TPOR worked out at 4.4 nM. The solubility in data set [1] (setting [2]) was under 1 µg/mL.
As to `CC1=NN(c2ccc3c(c2)CCCC3)C(=O)/C1=N\Nc1cccc(-c2ccc(C(=O)O)o2)c1O.NCCO.NCCO` [Example 7, (Z)-5-(2-hydroxy-3-{N′-[3-methyl-5-oxo-1-(5,6,7,8-tetrahydro-naphthalen-2-yl)-1,5-dihydro-pyrazol-4-ylidene]-hydrazino}-phenyl)-furan-2-carboxylic acid bis-(ethanolamine)], at human TPOR, the EC50 came to 19 nM. Besides, the solubility was 29 µg/mL in data set [1] (setting [2]); 22400 µg/mL in data set [1] (methanol, organic solvent or mixture, methanol); 3960 µg/mL in data set [1] (water).
On to `CC1=NN(c2ccc3c(c2)CCCC3)C(=O)/C1=N\Nc1cccc(-c2ccc(C(=O)O)o2)c1O` [Example 12, (Z)-5-(2-hydroxy-3-{N′-[3-methyl-5-oxo-1-(5,6,7,8-tetrahydro-naphthalen-2-yl)-1,5-dihydro-pyrazol-4-ylidene]-hydrazino}-phenyl)-furan-2-carboxylic acid bis-(trometamol)], for which it took 14 nM to reach a half-maximal effect on human TPOR (EC50).

As usually defined, the EC50 is the concentration giving half of the maximal effect. Broadly, the solubility is how much of the substance goes into solution per volume.

The record behind these values is patent US9120762B2, “Salts of bicyclo-substituted pyrazolon azo derivatives, preparation method and use thereof” (Jiangsu Hengrui Medicine Co., Ltd., priority 2009, dated 2015).
